Laboratory results: US6022536A, “Combined use of interleukin 10 and cyclosporin for immunosuppression therapy” (Schering Corporation, priority 1996, dated 2000)

Experiments:
Format in all cases: cell-based, human
[1] = tested on: T cell proliferation in MLR (PBMC); assay: one-way primary mixed lymphocyte reaction (MLR), PBMC + mitomycin-treated allogeneic PBMC, [3H]TdR uptake
Description: Human blood samples were collected in heparinized vacutainers. To facilitate removal of red blood cells (RBC), 2 ml of 6% dextran in phosphate buffered saline (PBS) (JRH Biosciences, Lenexa, Kans.) was added to each vacutainer, mixed and allowed to stand at room temperature for 30-45 min. The top buffy coat layer was carefully removed and cells centrifuged (300×g, 10 min., 4° C.). The cells were washed 3 times in 15 ml PBS. The peripheral blood mononuclear cells (PBMC) were isolated using a FICOLL-PAQUE (Pharmacia, Piscataway, N.J.) gradient. Ten ml of cells were layered on top of 4 ml FICOLL-PAQUE, centrifuged (1400×g, 20 min., room temperature) and the cells sedimenting at the interface were collected. These PBMC were washed 3 times in PBS, enumerated and resuspended in appropriate media for use in MLR experiments. […] Cell purity determined by staining with CD14 monoclonal antibodies and flow microfluorometric (FMF) analysis was 92% CD14^+. Viability determined by trypan blue exclusion was >95%.
The stimulator PBMAC were treated with 50 μl mitomycin C (Sigma Chemical Co., St. Louis, Mo.) for 20 minutes at 37° C. […] The cells were harvested onto a filter using a 96-well cell harvestor (Skatron, Inc., Sterling, Va.) and counted on a beta counter (Pharmacia LKB Nuclear Inc., Gaithersburg, Md.). […]

PBMC + monocytes = assay: MLR with purified monocytes (CD14+) as stimulators; details: monocytes (98% CD14+) as stimulators, PBMC as responder
Description: (§1) The stimulator PBMAC were treated with 50 μl mitomycin C (Sigma Chemical Co., St. Louis, Mo.) for 20 minutes at 37° C. The responder PBMC and the stimulator cells were added to a 96-well microtiter plate (Becton Dickinson, Lincoln Park, N.J.) at 1×10^5 cells per well of each, along with cytokines or antibodies in a total volume of 200 μl in triplets. The cultures were incubated at 37° C. with 5% CO2 in air for 6 days. The cultures were then pulsed with 1 μCi [^3 H]TdR (15.6CI/mmol, NEN, Boston, Mass.) per well for 16 hours. The cells were harvested onto a filter using a 96-well cell harvestor (Skatron, Inc., Sterling, Va.) and counted on a beta counter (Pharmacia LKB Nuclear Inc., Gaithersburg, Md.).
(§2) The supernatant from the MLR was removed and the non-adherent PBMC harvested. The adherent cells were harvested by incubation with 5 mM EDTA at 4° C. for 20 minutes and gently scraped. Cells were combined, centrifuged at 300×g for 10 minutes and washed 3 times in ice-cold PBS. The viable cells were enumerated by Trypan Blue exclusion using a Neubaeur counting chamber, resuspended to 1×10^7 cell/ml in PBS and 100 μl of human IgG (1 mg/ml) was added to each well and incubated on ice. […] Mean channel fluorescence and percent positives for specific markers were determined using LYSIS II software (BDIS). […]

IL-2 [2] = assay: IL-2 in supernatant of PBMC + PBMC MLR, ELISA; details: 60 hours; IL-10 100 U/ml; detection limit 50 pg/ml
Description: (§3) ELISA kits for cytokine production determination were purchased from R&D systems, Minneapolis, Minn.
(§4) To investigate the mechanism by which B cell line-induced MLR resists suppression by IL-10, the effect of IL-10 on cytokine synthesis in this MLR was examined. The presence of IL-2, IFN-γ and TNF-α in supernatants of MLR set up with and without IL-10 ([…]) for 60 hours was determined using ELISA kits.
(§5) ^a The MLR cultures were set up as described above using PBMC (1
(§6) × 10^6 /ml) as responder and mitomycin Ctreated JY cells (5
(§7) × 10^5 cell/) or allogeneic PBMC (5 × 10^5) as
(§8) stimulators in a 24well plate for 60 hours. IL10 was used at 100 U/ml and […]

PBMC + B = assay: MLR with purified normal B cells (CD20+) as stimulators, [3H]TdR uptake; details: IL-10 200 U/ml; medium 3939 ± 100
Description: as §1, §2

PBMC + Daudi = assay: MLR with Daudi B cell line as stimulator, [3H]TdR uptake; details: IL-10 200 U/ml; medium 37357 ± 4497
Description: as §1
(§9) To address this question further, the ability of IL-10 to suppress the proliferation in MLR when allogeneic PBMC, purified B cells, monocytes or B cell lines were used as stimulators was studied.

IFN-γ [3] = assay: IFN-γ in supernatant of PBMC + PBMC MLR, ELISA; details: 60 hours; IL-10 100 U/ml; detection limit 25 pg/ml
Description: as §3, §4, §5, §6, §7, §8

PBMC + JY = assay: MLR with JY B cell line as stimulator, [3H]TdR uptake
Description: as §1, §9

[4] = tested on: direct allostimulation of T cells; assay: direct allostimulation: one way primary MLR, responder PBMCs depleted of APC; details: responder PBMCs depleted of APC's; similar with CD4+ or CD8+ responders
Description: (§10) Purified PBMC from human blood were collected in heparinated tubes by FICOLL gradient. The blood was diluted 1:1 with PBS. 30 ml of the diluted blood was laid on top of 20 ml Ficoll in a 50 ml conical tube and spun at 2,000 rpm for 30 minutes. The interface cells were collected and washed 3 times with medium (10% FCS/RPMI).
(§11) The plastic adherent antigen presenting cells (APC) were removed by resuspended PBMC in 1%. human serum (Type AB) at 1×10^6 cells/ml, and incubated at 37° C. for 30 min. The cells which floated were collected and placed in media (10% FCS/RPMI).
(§12) Nylon wool adherent APC were removed as follows:
(§13) A 10 ml syringe was packed with 1.5 g of nylon wool (Polysciences, Inc., Cat. #18369) and autoclaved. A 3-way stopcock and a 22-gauge needle were attached to the syringe, and the column was washed with 50 ml of prewarmed medium. A cell suspension of 5×10^7 cells/ml of […] was prepared in prewarmed medium. Just before adding the cell suspension, the wool was rinsed with 5 ml of prewarmed medium, the column was left to run dry, and the stopcock was closed. Cells (5-10×10^7) were added. The cells were allowed to penetrate the column, and the stopcock was closed. An additional 0.5 ml of medium was added and the column maintained at 37° C. for 45 minutes. […]

TNF-α [5] = assay: TNF-α in supernatant of PBMC + PBMC MLR, ELISA; details: 60 hours; IL-10 100 U/ml; detection limit 25 pg/ml
Description: as §3, §4, §5, §6, §7, §8

IFN-γ [6] = assay: IFN-γ in supernatant of JY-induced MLR, ELISA; details: 60 hours; IL-10 100 U/ml, CSA 40 ng/ml; PBMC JY alone 5715
Description: as §3, §4, §5, §6, §7, §8

TNF-α [7] = assay: TNF-α in supernatant of JY-induced MLR, ELISA; details: 60 hours; IL-10 100 U/ml, CSA 40 ng/ml; PBMC JY alone 154
Description: as §3, §4, §5, §6, §7, §8

IL-2 [8] = assay: IL-2 in supernatant of JY-induced MLR, ELISA; details: 60 hours; IL-10 100 U/ml, CSA 40 ng/ml; PBMC JY alone 3006
Description: as §3, §4, §5, §6, §7, §8

[9] = tested on: indirect allostimulation of T cells; assay: indirect allostimulation: MLR, APC depleted from the stimulator population; details: APC's depleted from the stimulator population
Description: as §10, §11, §12, §13

IL-10: human interleukin 10, a cytokine produced by T lymphocytes
IC50 [1]: 8 pM
CPM (mean ± SD), 3H-TdR uptake ([1]; Human IL-10 100 U/ml, 19B1 and rat IgG at 2.5 U g/ml, untreated MLR 5127 ± 935): 643 ± 197 CPM
suppression of MLR-induced proliferation (PBMC + monocytes): strongly suppresses
Cytokine concentration IL-2 (IL-2 [2]): < 50 pg/mL
CPM (M ± SD), 3H-TdR uptake (PBMC + B): 182 ± 47 CPM
CPM (M ± SD), 3H-TdR uptake (PBMC + Daudi): 45763 ± 3089 CPM
Cytokine concentration IFN-γ (IFN-γ [3]): < 25 pg/mL
CPM (M ± SD), 3H-TdR uptake (PBMC + JY; IL-10 200 U/ml, medium 26222 ± 6293): 25182 ± 7302 CPM
suppression of JY-induced MLR (PBMC + JY; higher doses of IL-10 up to 1000 U/ml): did not suppress
suppression of direct allostimulation, compared with CSA [4]: more suppression than CSA
Cytokine concentration TNF-α (TNF-α [5]): < 25 pg/mL
Cytokine concentration IFN-γ (IFN-γ [6]): 2960 pg/mL
Cytokine concentration TNF-α (TNF-α [7]): 209 pg/mL
Cytokine concentration IL-2 (IL-2 [8]): 1294 pg/mL
inhibition of indirect allostimulation, compared with CSA [9]: stronger inhibitor to the indirect allostimulation than CSA
